Reference: the supplement of paper PMC10307832

What follows are cell lines tested with Cn1nnc2c(C(N)=O)ncn2c1=O [Temozolomide] + C[C@@H](Oc1cc(-c2cnn(C3CCNCC3)c2)cnc1N)c1c(Cl)ccc(F)c1Cl [Crizotinib] (partner 1 µM) (assay: relative viability (nuclei count vs DMSO), 5 days (fraction); higher = more cells survive). Conditions: first compound 0.6325 µM.
Procedure, shortened: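 Lung cancer cell lines, seeded in 1536-well plates, were treated the following day by pin tool with a single drug or with five library-drug doses (not always all listed) in √10 steps on top of a fixed anchor-drug dose. Cells were fixed and nuclei stained in one step after 5 days, and nuclei were counted. Relative viability is the nuclei count for treated wells divided by that for vehicle wells, reported as medians of duplicate plates.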

Row | Cell Line | relative viability
1 | 201T | 1.09
2 | A549 | 0.829
3 | A-427 | 0.775
4 | ABC-1 | 0.91
5 | BEN | 0.858
6 | CAL-12T | 0.744
7 | COR-L23 | 0.701
8 | COR-L 105 | 0.913
9 | Calu-6 | 0.83
10 | ChaGo-K-1 | 1.16
11 | EBC-1 | 0.2
12 | EKVX | 1.07
13 | EMC-BAC-2 | 0.74
14 | EPLC-272H | 0.986
15 | H3255 | 0.822
16 | HARA | 1.05
17 | HCC-15 | 0.918
18 | HCC-44 | 0.796
19 | HCC-78 | 0.331

Row | Cell Line | relative viability
20 | HCC-366 | 0.604
21 | HCC-827 | 0.932
22 | HOP-62 | 0.991
23 | IA-LM | 0.719
24 | LC-2-ad | 0.443
25 | LCLC-97TM1 | 0.237
26 | LCLC-103H | 1.04
27 | LK-2 | 0.229
28 | LOU-NH91 | 0.758
29 | LU99A | 0.601
30 | LXF-289 | 0.82
31 | NCI-H358 | 0.62
32 | NCI-H1299 | 0.934
33 | NCI-H1563 | 0.853
34 | NCI-H1944 | 1.08
35 | NCI-H2170 | 1.26
36 | NCI-H2228 | 0.536
37 | SK-MES-1 | 0.969

Same assay, conditions: first compound 2 µM

Row | Cell Line | relative viability
38 | 201T | 1.08
39 | A549 | 0.869
40 | A-427 | 0.815
41 | ABC-1 | 1.14
42 | BEN | 0.814
43 | CAL-12T | 0.587
44 | COR-L23 | 0.669
45 | COR-L 105 | 0.827
46 | Calu-6 | 0.904
47 | ChaGo-K-1 | 1.15
48 | EBC-1 | 0.229
49 | EKVX | 0.951
50 | EMC-BAC-2 | 0.789
51 | EPLC-272H | 0.925
52 | H3255 | 0.795
53 | HARA | 1.15
54 | HCC-15 | 0.807
55 | HCC-44 | 0.791
56 | HCC-78 | 0.382

Row | Cell Line | relative viability
57 | HCC-366 | 0.402
58 | HCC-827 | 0.932
59 | HOP-62 | 1.05
60 | IA-LM | 1.09
61 | LC-2-ad | 0.51
62 | LCLC-97TM1 | 0.342
63 | LCLC-103H | 1.08
64 | LK-2 | 0.252
65 | LOU-NH91 | 0.75
66 | LU99A | 0.6
67 | LXF-289 | 0.761
68 | NCI-H358 | 0.686
69 | NCI-H1299 | 0.988
70 | NCI-H1563 | 0.965
71 | NCI-H1944 | 1.18
72 | NCI-H2170 | 1.21
73 | NCI-H2228 | 0.466
74 | SK-MES-1 | 1.03

Same assay, conditions: first compound 6.325 µM

Row | Cell Line | relative viability
75 | 201T | 0.834
76 | A549 | 0.754
77 | A-427 | 0.594
78 | ABC-1 | 1.17
79 | BEN | 0.815
80 | CAL-12T | 0.695
81 | COR-L23 | 0.503
82 | COR-L 105 | 0.787
83 | Calu-6 | 0.817
84 | ChaGo-K-1 | 0.646
85 | EBC-1 | 0.208
86 | EKVX | 0.886
87 | EMC-BAC-2 | 0.768
88 | EPLC-272H | 0.962
89 | H3255 | 0.798
90 | HARA | 1.01
91 | HCC-15 | 0.805
92 | HCC-44 | 0.831
93 | HCC-78 | 0.361

Row | Cell Line | relative viability
94 | HCC-366 | 0.622
95 | HCC-827 | 0.902
96 | HOP-62 | 0.801
97 | IA-LM | 0.706
98 | LC-2-ad | 0.443
99 | LCLC-97TM1 | 0.33
100 | LCLC-103H | 1.05
101 | LK-2 | 0.206
102 | LOU-NH91 | 0.704
103 | LU99A | 0.557
104 | LXF-289 | 0.791
105 | NCI-H358 | 0.552
106 | NCI-H1299 | 0.989
107 | NCI-H1563 | 0.847
108 | NCI-H1944 | 1.06
109 | NCI-H2170 | 0.999
110 | NCI-H2228 | 0.399
111 | SK-MES-1 | 0.947

Same assay, conditions: first compound 20 µM

Row | Cell Line | relative viability
112 | 201T | 0.986
113 | A549 | 0.816
114 | A-427 | 0.428
115 | ABC-1 | 1.34
116 | BEN | 0.717
117 | CAL-12T | 0.733
118 | COR-L23 | 0.614
119 | COR-L 105 | 0.841
120 | Calu-6 | 0.767
121 | ChaGo-K-1 | 1.12
122 | EBC-1 | 0.194
123 | EKVX | 0.551
124 | EMC-BAC-2 | 0.804
125 | EPLC-272H | 0.728
126 | H3255 | 0.179
127 | HARA | 0.949
128 | HCC-15 | 0.905
129 | HCC-44 | 0.826
130 | HCC-78 | 0.248

Row | Cell Line | relative viability
131 | HCC-366 | 0.447
132 | HCC-827 | 0.172
133 | HOP-62 | 0.965
134 | IA-LM | 0.962
135 | LC-2-ad | 0.437
136 | LCLC-97TM1 | 0.375
137 | LCLC-103H | 1.05
138 | LK-2 | 0.213
139 | LOU-NH91 | 0.532
140 | LU99A | 0.515
141 | LXF-289 | 0.76
142 | NCI-H358 | 0.559
143 | NCI-H1299 | 0.975
144 | NCI-H1563 | 0.729
145 | NCI-H1944 | 0.975
146 | NCI-H2170 | 0.494
147 | NCI-H2228 | 0.369
148 | SK-MES-1 | 0.997
